This passage reports IC50, EC50 and AC50 results from ChEMBL document CHEMBL1201862, “PubChem BioAssay data set” (2004).

Activity calls are given as the source filed them.

One experiment deals with T1, Protein Tat (Human immunodeficiency virus type 1 group M subtype B (isolate HXB2)(HIV-1), UniProt P04608).
T1 sequence (P04608 whole entry): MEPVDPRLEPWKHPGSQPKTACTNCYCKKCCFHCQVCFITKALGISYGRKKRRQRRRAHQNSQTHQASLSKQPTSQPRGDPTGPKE
Format: functional.

The nature of experiment [1]: Luminescence Cell-Based Dose Response to Identify Activators of Luciferase Translation or Activity in H4-C Neuroglioblastoma Cells. [Related pubchem assays: 1829 (Project Summary), 1814 (Primary HTS)]. Format: functional.
The nature of experiment [2]: Luminescence Cell-Based Dose Response HTS to Identify Activators of Luciferase Translation or Activity in H4 […] Cells. [Related pubchem assays: 1829 (Project Summary), 1814 (Primary HTS)]. The class given is functional.
A short description of experiment [3]: Luminescence Cell-Based Dose Confirmation HTS to Identify Activators of 5'UTR Stem-Loop Driven Alpha-Synuclein mRNA Translation in H4 Neuroglioblastoma Cells. [Related pubchem assays: 1829 (Project Summary), 1814 (Primary HTS)]. The class given is functional.
For another experiment, the system named is H4. In words: Luminescence Cell-Based Dose Response HTS to Identify Activators of 5'UTR Stem-Loop Driven Prion Protein mRNA Translation in H4 Neuroglioblastoma Cells. [Related pubchem assays: 1829 (Project Summary), 1814 (Primary HTS)]. Format: functional. Particulars: Homo sapiens.
Experiment [4] is described as follows: inhibitors of intracellular T. cruzi replication, confirmation, NIH3T3 host cells, beta-gal luminescence (AID 2044).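 Also: intracellular parasites grown in NIH/3T3 mouse fibroblasts as host cells; luminescent beta-galactosidase reporter signal from transgenic T. cruzi replicating inside host cells; inhibitors lower the luminescence signal.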 The class given is functional, cell-based.
The nature of experiment [5]: Luminescence Cell-Based Dose Confirmation to Identify Activators of 5'UTR Stem-Loop Driven Alpha-Synuclein mRNA Translation in H4 Neuroglioblastoma Cells. [Related pubchem assays: 1829 (Project Summary), 1814 (Primary HTS)]. The class given is functional.
Experiment [6] in a line: Luminescence Cell-Based Dose Response to Identify Activators of 5'UTR Stem-Loop Driven Prion Protein mRNA Translation in H4-C Neuroglioblastoma Cells. [Related pubchem assays: 1829 (Project Summary), 1814 (Primary HTS)]. The class given is functional.
Experiment [7] can be described thus: cytotoxicity toward NIH3T3 fibroblasts, dose response, counter-screen, cell-based, ATP luminescence, mouse fibroblasts (AID 2010).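 Also: cells exposed to compound for about 90 hours before reading.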 Format: functional. (A counterscreen serves to expose hits that act by an unwanted route or on another target.)
Experiment [8] is described as follows: inhibitors of Vif binding to APOBEC3G peptide, primary screen, biochemical, TR-FRET, GST-Vif 1-94, biotin-A3G peptide, dose response retest (AID 1117319).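 Also: TR-FRET signal of purified GST-Vif binding a biotinylated A3G peptide; inhibitors lower the FRET signal by blocking Vif and A3G binding.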 The class given is functional.
Experiment [9] is described as follows: cytotoxicity in OV-90 ovarian cancer cells, dose response, PAX8 inhibitor project, cell-based, plate reader, dry powder, SA8 (AID 743149). The class given is functional.
Experiment [10] is described as follows: PAX5 activity inhibitors, dose response, selectivity assay for PAX8 inhibitor project, cell-based, plate reader, dry powder samples (AID 743047).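 Also: HEK293 cells carrying a Pax5 driven CD19 promoter luciferase reporter; potency of inhibitors that lower reporter luminescence.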 Format: functional.
In another experiment the target is Paired box protein Pax-8 (Homo sapiens, UniProt Q06710). In words: inhibitors of PAX8-driven TPO luciferase reporter, dose response, RMG-I cells, cherry-pick (AID 687027).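 Also: luciferase reporter driven by Pax8 target thyroperoxidase promoter measured by SteadyGlo luminescence.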 The class given is functional, cell-based. For orientation: Reporter assays use an easily measured gene product as a stand-in for the process of interest.
Experiment [11] in a line: cytotoxicity in COV434 cells, dose response, cytotoxicity control for PAX8 inhibitor project, cell-based, plate reader, dry powder, SA7 (AID 743145). Format: functional.
Experiment [12] in a line: cytotoxicity dependent on PAX8, dose response, cell-based, plate reader, dry powder (AID 743049). The class given is functional.
Experiment [13] can be described thus: NIH:OVCAR-3 ovarian cancer cell cytotoxicity, dose response, PAX8 inhibitor project, plate reader, dry powder samples (AID 743044). Format: functional, cell-based.
Experiment [14] can be described thus: PAX2 cell-based inhibition, dose response, selectivity assay for PAX8 inhibitor project, plate reader, dry powder samples (AID 743048).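 Also: HEK293 cells carrying a WT1 promoter luciferase reporter driven by expressed Pax2; potency is for inhibition of Pax2 driven reporter signal.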 The class given is functional.
Experiment [15] deals with T2, Corticotropin-releasing factor receptor 2/Corticotropin-releasing factor-binding protein (Homo sapiens, UniProt P24387+Q13324).
T2 sequence (Q13324 whole entry): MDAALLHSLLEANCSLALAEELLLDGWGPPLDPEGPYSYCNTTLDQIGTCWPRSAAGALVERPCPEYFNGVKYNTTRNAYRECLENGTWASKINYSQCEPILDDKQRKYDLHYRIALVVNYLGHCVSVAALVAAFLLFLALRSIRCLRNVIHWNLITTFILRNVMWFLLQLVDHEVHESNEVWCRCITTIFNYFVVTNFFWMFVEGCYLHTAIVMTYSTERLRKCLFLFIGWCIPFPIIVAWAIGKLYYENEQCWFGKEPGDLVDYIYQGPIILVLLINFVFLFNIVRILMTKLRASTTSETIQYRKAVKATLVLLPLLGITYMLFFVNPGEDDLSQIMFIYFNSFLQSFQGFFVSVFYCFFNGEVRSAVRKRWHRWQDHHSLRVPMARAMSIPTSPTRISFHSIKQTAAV
T2 sequence (P24387 whole entry): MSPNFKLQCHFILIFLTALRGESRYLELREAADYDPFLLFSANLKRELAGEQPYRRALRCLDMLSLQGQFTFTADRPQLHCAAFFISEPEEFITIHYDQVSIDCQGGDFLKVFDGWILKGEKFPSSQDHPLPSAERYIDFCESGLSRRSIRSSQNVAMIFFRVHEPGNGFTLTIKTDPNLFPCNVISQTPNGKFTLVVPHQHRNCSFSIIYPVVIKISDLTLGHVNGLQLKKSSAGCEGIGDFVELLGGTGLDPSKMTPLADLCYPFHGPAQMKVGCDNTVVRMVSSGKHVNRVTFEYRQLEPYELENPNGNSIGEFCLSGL
The experiment in a line: Dose Response confirmation of uHTS hits for small molecule antagonists of the CRF-binding protein and CRF-R2 receptor complex. Format: functional. To be noted: read-out: IC50_Mean.

Experiment [16] has as its target T2, Corticotropin-releasing factor receptor 2/Corticotropin-releasing factor-binding protein. In words: activators of CRF receptor 2 with binding protein – uHTS hits, confirmation (AID 602473). The class given is functional. Particulars: read-out: EC50_Mean.
Experiment [17] addresses T3, RNA-binding protein pos-1 (Caenorhabditis elegans, UniProt G5EF15).
T3 sequence (G5EF15 whole entry): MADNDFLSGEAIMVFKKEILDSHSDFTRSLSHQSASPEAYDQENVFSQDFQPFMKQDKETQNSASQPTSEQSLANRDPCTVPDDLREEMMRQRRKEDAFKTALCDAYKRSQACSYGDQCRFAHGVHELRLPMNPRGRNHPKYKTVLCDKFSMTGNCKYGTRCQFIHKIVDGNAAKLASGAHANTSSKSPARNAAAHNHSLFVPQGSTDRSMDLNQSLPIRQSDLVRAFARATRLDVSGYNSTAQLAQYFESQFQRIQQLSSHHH
In words: inhibitors of POS-1/mex-3 RNA binding, dose response, biochemical, fluorescence polarization (AID 1964).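 Also: purified POS-1 fused to maltose binding protein made in E. coli; potency of compounds blocking POS-1 binding to fluorescent RNA.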 Background: In fluorescence polarisation assays a small probe gives low polarisation when free and higher when bound to something large.

Experiment [18] deals with T4, Oxysterols receptor LXR-beta (Homo sapiens, UniProt P55055).
T4 sequence (P55055 whole entry): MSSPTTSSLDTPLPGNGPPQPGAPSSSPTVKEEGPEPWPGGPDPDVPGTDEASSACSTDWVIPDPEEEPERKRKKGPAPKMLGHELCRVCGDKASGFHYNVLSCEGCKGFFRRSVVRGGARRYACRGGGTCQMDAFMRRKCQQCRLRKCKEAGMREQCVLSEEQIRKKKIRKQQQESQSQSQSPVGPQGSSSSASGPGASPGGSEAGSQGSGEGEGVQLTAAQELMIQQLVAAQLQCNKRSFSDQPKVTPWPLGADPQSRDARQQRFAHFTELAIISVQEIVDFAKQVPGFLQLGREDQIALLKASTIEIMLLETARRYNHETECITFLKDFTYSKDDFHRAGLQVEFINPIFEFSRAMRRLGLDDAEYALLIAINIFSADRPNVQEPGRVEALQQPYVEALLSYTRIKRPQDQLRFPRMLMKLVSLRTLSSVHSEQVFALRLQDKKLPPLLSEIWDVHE
The experiment in a line: LXR agonists, Gal4 luciferase reporter, dose response, counter-screen for ssDAF-12 agonist project, cell-based, luminescence, HEK293, S. stercoralis campaign (AID 720737). The class given is functional. Particulars: read-out: IC50 (the source's name).

Experiment [19] in a line: Luminescence-based cell-based high throughput dose response assay to identify activators of the DAF-12 from the parasite S. stercoralis (ssDAF-12). The class given is functional.
The target of experiment [20] is T5, Zinc finger protein mex-5 (Caenorhabditis elegans, UniProt Q9XUB2).
T5 sequence (Q9XUB2 whole entry): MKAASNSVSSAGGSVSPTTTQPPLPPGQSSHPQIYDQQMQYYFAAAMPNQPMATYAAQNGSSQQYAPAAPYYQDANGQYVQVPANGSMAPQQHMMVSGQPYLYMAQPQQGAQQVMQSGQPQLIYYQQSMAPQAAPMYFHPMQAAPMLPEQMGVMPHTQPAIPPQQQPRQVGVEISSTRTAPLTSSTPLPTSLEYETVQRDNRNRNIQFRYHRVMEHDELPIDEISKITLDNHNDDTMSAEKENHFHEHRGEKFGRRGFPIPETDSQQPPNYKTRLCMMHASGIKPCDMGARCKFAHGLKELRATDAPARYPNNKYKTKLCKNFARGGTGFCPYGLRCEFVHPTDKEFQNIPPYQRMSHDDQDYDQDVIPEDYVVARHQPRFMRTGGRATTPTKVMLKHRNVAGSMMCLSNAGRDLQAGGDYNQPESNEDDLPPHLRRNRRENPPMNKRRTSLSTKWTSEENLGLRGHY
The experiment in a line: MEX-5/TCR-2 RNA interaction inhibitors, dose response, biochemical, C. elegans, fluorescence polarization (AID 1960).

Sequence of Paired box protein Pax-8 (Q06710 whole entry): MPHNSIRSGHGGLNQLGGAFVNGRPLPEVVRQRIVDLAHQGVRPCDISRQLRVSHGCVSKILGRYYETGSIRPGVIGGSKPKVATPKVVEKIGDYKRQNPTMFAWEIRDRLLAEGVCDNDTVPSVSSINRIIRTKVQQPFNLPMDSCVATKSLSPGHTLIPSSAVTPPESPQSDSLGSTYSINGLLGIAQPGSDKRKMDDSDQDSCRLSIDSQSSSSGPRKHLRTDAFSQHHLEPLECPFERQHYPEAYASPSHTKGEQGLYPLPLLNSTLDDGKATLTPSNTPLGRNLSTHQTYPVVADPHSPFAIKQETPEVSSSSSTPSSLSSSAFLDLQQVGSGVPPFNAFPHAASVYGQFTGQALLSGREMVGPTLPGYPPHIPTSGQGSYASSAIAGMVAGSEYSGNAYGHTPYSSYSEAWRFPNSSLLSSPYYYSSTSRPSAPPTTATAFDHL

In the case of `O=C(Nc1ccccc1C(=O)NC(Cc1c[nH]c2ccccc12)C(=O)O)c1ccco1` (stereo not given), the IC50 at Protein Tat was > 100 µM (active).
Regarding `CCC(=O)Nc1ccc(C(=O)OCc2ccccc2Cl)cc1`, the EC50 was 0.614 µM (active) in [1]; 37.7 µM (active) in experiment [2]; < 0.1 µM (active) in experiment [3]; 11.7 µM (active) with H4; 0.815 µM (active) in experiment [4]; 0.976 µM (active) in experiment [5]. For the same molecule, the figures for the EC50 in experiment [6] and in experiment [7] were 8.13 µM (active) and > 60 µM (not active), respectively.
With `Cc1ccn2cc(CNS(=O)(=O)c3ccc(Cl)s3)nc2c1`, the IC50 (in experiment [8]; at Protein Tat) was > 100 µM (active) in each case.
Turning to `O=C(/C=C/c1ccco1)NC1=NCCS1`, the EC50 in experiment [1] is 0.323 µM (active); in experiment [2], 0.484 µM (active); in experiment [3], < 0.1 µM (active); in the experiment on H4 it was < 0.1 µM (active); in [5], 0.428 µM (active); in [6] it was 0.519 µM (active).
`Cc1ccc(S(=O)(=O)Nc2ccc3c(c2)nc(CCN2CCCC2)n3C)cc1`: the AC50 (as a rule, the midpoint of the concentration-response curve, whichever way the signal moves) is 45.2 µM (active) in experiment [9]; > 100 µM (inactive) in experiment [10]; 5.89 µM (active) at Paired box protein Pax-8; 26.4 µM (active) in [11]; 50.6 µM (active) in [12]; 34.1 µM (active) in experiment [13]. In addition, in experiment [14], the AC50 was > 100 µM (inactive).
With `CCCn1nc(C(=O)Nc2ccc3nc(C)sc3c2)c2ccccc2c1=O`, the IC50 in [15] was > 47.1 µM (inactive); in [19] it was > 67.5 µM (inactive). For the same molecule, the EC50 in experiment [16] was > 53 µM (inactive); in [17], > 300 µM (not active); in experiment [18] it was > 67.5 µM (inactive); in experiment [20] it was > 300 µM (not active).
